Reference: PubChem BioAssay (NCI)
“And” between values parts separate entries of the source, which are not always exact repeats. Equal entries are not always repeated.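 Following 48 hours of exposure in 96-well plates, responses at five concentrations were used to interpolate endpoints linearly. GI50 is the concentration that inhibits growth by half. At the TGI there is no net growth.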

Key:
Assay in all cases: NCI tumour cell line growth inhibition, 48 h
[1] = tested on: 786-0 renal
[2] = tested on: A498 renal
[3] = tested on: A549 NSCLC
[4] = tested on: ACHN renal
[5] = tested on: CAKI-1 renal
[6] = tested on: CCRF-CEM leukemia
[7] = tested on: DLD-1 colon
[8] = tested on: DMS 114 small cell lung
[9] = tested on: DMS 273 small cell lung
[10] = tested on: EKVX NSCLC
[11] = tested on: HCC-2998 colon
[12] = tested on: HCT-116 colon
[13] = tested on: HCT-15 colon
[14] = tested on: HL-60(TB) leukemia
[15] = tested on: HOP-18 NSCLC
[16] = tested on: HOP-62 NSCLC
[17] = tested on: HOP-92 NSCLC
[18] = tested on: HT29 colon
[19] = tested on: IGROV1 ovarian
[20] = tested on: K-562 leukemia
[21] = tested on: KM12 colon
[22] = tested on: KM20L2 colon
[23] = tested on: LOX IMVI melanoma
[24] = tested on: LXFL 529 NSCLC
[25] = tested on: M14 melanoma
[26] = tested on: M19-MEL melanoma
[27] = tested on: MALME-3M melanoma
[28] = tested on: MOLT-4 leukemia
[29] = tested on: NCI-H226 lung
[30] = tested on: NCI-H23 lung
[31] = tested on: NCI-H460 lung
[32] = tested on: NCI-H522 lung
[33] = tested on: OVCAR-4 ovarian
[34] = tested on: OVCAR-5 ovarian
[35] = tested on: OVCAR-8 ovarian
[36] = tested on: RPMI-8226 leukemia
[37] = tested on: RXF 393 renal
[38] = tested on: RXF-631 renal
[39] = tested on: SF-268 CNS
[40] = tested on: SF-295 CNS
[41] = tested on: SF-539 CNS
[42] = tested on: SK-MEL-2 melanoma
[43] = tested on: SK-MEL-28 melanoma
[44] = tested on: SK-MEL-5 melanoma
[45] = tested on: SK-OV-3 ovarian
[46] = tested on: SN12C renal
[47] = tested on: SNB-19 CNS
[48] = tested on: SNB-75 CNS
[49] = tested on: SNB-78 CNS
[50] = tested on: SR leukemia
[51] = tested on: SW-620 colon
[52] = tested on: TK-10 renal
[53] = tested on: U251 CNS
[54] = tested on: UACC-257 melanoma
[55] = tested on: UACC-62 melanoma
[56] = tested on: UO-31 renal
[57] = tested on: XF 498 CNS
[58] = tested on: BT-549 breast
[59] = tested on: DU-145 prostate
[60] = tested on: MCF7 breast
[61] = tested on: P388 leukemia
[62] = tested on: P388/ADR leukemia
[63] = tested on: SN12K1 renal
[64] = tested on: OVCAR-3 ovarian

With CN(C)C(=S)/N=C(\N)N(C)C the TGI [1] was > 100 µM, the TGI [2] was > 100 µM and the TGI [3] was > 100 µM. The TGI [4] was > 100 µM, the TGI [5] was > 100 µM and the TGI [6] was > 100 µM. The TGI [7] was > 100 µM, the TGI [8] was > 100 µM and the TGI [9] was > 100 µM. The TGI [10] was > 100 µM, the TGI [11] was > 100 µM and the TGI [12] was > 100 µM. For the same compound, the TGI [13] was > 100 µM, the TGI [14] was > 100 µM and the TGI [15] was > 100 µM. For the same compound, the TGI [16] was > 100 µM, the TGI [17] was > 100 µM and the TGI [18] was > 100 µM. The TGI [19] was > 100 µM, the TGI [20] was > 100 µM and the TGI [21] was > 100 µM. For the same compound, the TGI [22] was > 100 µM, the TGI [23] was > 100 µM and the TGI [24] was > 100 µM. The TGI [25] was > 100 µM, the TGI [26] was > 100 µM and the TGI [27] was > 100 µM. For the same compound, the TGI [28] was > 100 µM, the TGI [29] was > 100 µM and the TGI [30] was > 100 µM. For the same compound, the TGI [31] was > 100 µM, the TGI [32] was > 100 µM and the TGI [33] was > 100 µM. The TGI [34] was > 100 µM, the TGI [35] was > 100 µM and the TGI [36] was > 100 µM. For the same compound, the TGI [37] was > 100 µM, the TGI [38] was > 100 µM and the TGI [39] was > 100 µM. The TGI [40] was > 100 µM, the TGI [41] was > 100 µM and the TGI [42] was > 100 µM. For the same compound, the TGI [43] was > 100 µM, the TGI [44] was > 100 µM and the TGI [45] was > 100 µM. For the same compound, the TGI [46] was > 100 µM, the TGI [47] was > 100 µM and the TGI [48] was > 100 µM. For the same compound, the TGI [49] was > 100 µM, the TGI [50] was > 100 µM and the TGI [51] was > 100 µM. For the same compound, the TGI [52] was > 100 µM, the TGI [53] was > 100 µM and the TGI [54] was > 100 µM. For the same compound, the TGI [55] was > 100 µM, the TGI [56] was > 100 µM and the TGI [57] was > 100 µM.

With O=c1[nH]c(=O)n(C2CC(O)C(CO)O2)cc1F (centres undefined) the TGI [1] was > 100 µM and 1790 µM and > 2500 µM, the TGI [2] was > 100 µM and 84.7 µM and the TGI [3] was > 100 µM and 1910 µM and > 2500 µM. For the same compound, the GI50 [4] was > 92.6 µM, the TGI [4] was > 100 µM and 1670 µM and the TGI [58] was > 100 µM and 1030 µM and > 869 µM. The TGI [5] was > 100 µM and 1100 µM and > 2500 µM, the TGI [8] was 808 µM and the TGI [9] was 415 µM. The TGI [59] was > 100 µM and > 1570 µM and 1820 µM, the GI50 [11] was 33.6 µM and the TGI [18] was > 100 µM and 2400 µM and > 2500 µM. The TGI [20] was > 100 µM and 1080 µM, the TGI [60] was > 100 µM and 1940 µM and > 2500 µM and the TGI [28] was > 100 µM and 1930 µM and > 2500 µM. For the same compound, the TGI [30] was > 100 µM and 239 µM, the GI50 [31] was > 65.3 µM and the TGI [31] was > 100 µM and 526 µM. The TGI [34] was > 100 µM and 2330 µM and > 2500 µM, the TGI [35] was > 100 µM and 2320 µM and > 2500 µM and the TGI [61] was 179 µM. For the same compound, the TGI [62] was 74.9 µM, the GI50 [41] was > 79.3 µM and the TGI [43] was > 100 µM and 1730 µM and > 2500 µM. The TGI [63] was 1250 µM, the TGI [47] was > 100 µM and 1750 µM and > 2500 µM and the TGI [50] was > 100 µM and 750 µM. The TGI [52] was > 100 µM and 1650 µM and > 2500 µM and the TGI [56] was > 100 µM and 130 µM.

With O=C(/C=C/c1ccco1)N1CCN(Cc2ccccc2)CC1 the TGI [1] was > 100 µM, the TGI [2] was > 100 µM and the TGI [3] was > 100 µM. The TGI [4] was > 100 µM, the TGI [5] was > 100 µM and the TGI [6] was > 100 µM. For the same compound, the TGI [7] was > 100 µM, the TGI [8] was > 100 µM and the TGI [9] was > 100 µM. For the same compound, the TGI [10] was > 100 µM, the TGI [11] was > 100 µM and the TGI [12] was > 100 µM. The TGI [13] was > 100 µM, the TGI [14] was > 100 µM and the TGI [15] was > 100 µM. The TGI [16] was > 100 µM, the TGI [17] was > 100 µM and the TGI [18] was > 100 µM. For the same compound, the TGI [19] was > 100 µM, the TGI [21] was > 100 µM and the TGI [22] was > 100 µM. The TGI [23] was > 100 µM, the TGI [24] was > 100 µM and the TGI [25] was > 100 µM. For the same compound, the TGI [26] was > 100 µM, the TGI [28] was > 100 µM and the TGI [30] was > 100 µM. The TGI [31] was > 100 µM, the TGI [32] was > 100 µM and the TGI [64] was > 100 µM. The TGI [33] was > 100 µM, the TGI [34] was > 100 µM and the TGI [35] was > 100 µM. The TGI [36] was > 100 µM, the TGI [38] was > 100 µM and the TGI [39] was > 100 µM. For the same compound, the TGI [40] was > 100 µM, the TGI [41] was > 100 µM and the TGI [43] was > 100 µM. The TGI [44] was > 100 µM, the TGI [45] was > 100 µM and the TGI [46] was > 100 µM. For the same compound, the TGI [47] was > 100 µM, the TGI [48] was > 100 µM and the TGI [49] was > 100 µM. For the same compound, the TGI [50] was > 100 µM, the TGI [51] was > 100 µM and the TGI [52] was > 100 µM. The TGI [53] was > 100 µM, the TGI [54] was > 100 µM and the TGI [55] was > 100 µM. For the same compound, the TGI [56] was > 100 µM and the TGI [57] was > 100 µM.
